Series [1] relates to H460 human lung cancer xenografts. Put plainly: Growth delay and survival of H460 xenografts, PR-104, docetaxel and schedules thereof. Format: in vivo, CD-1 nude mice. How it is done:
Specific pathogen-free homozygous nu/nu (CD-1) nu/nu [NIH-III] (Charles River Laboratories, Wilmington, Mass.) were provided by the Animal Resources Unit (University of Auckland) at 7 to 9 weeks of age. Mice were housed in groups of 4-7 in a temperature-controlled room (22±2° C.) with a 12-hour light/dark cycle and were fed ad libitum water and a standard rodent diet (Harlan Teklad diet 2018i). All animals were uniquely identifiable by ear tag number. All animal protocols were approved by the Animal Ethics Committee of the University of Auckland (AEC approval C337).
A single cell suspension was prepared by trypsinisation (1× Trypsin/EDTA) from spinner culture, counted, and suspended in ∝MEM to give required cell concentration, as listed below. Mice were inoculated (100 μL) at a single subcutaneous site (right flank) using a 1 ml syringe with a 26 gauge needle.
Seven days post-inoculation, tumors were measured three times per week until they reached the treatment size (mean diameter 5.8-8.2 mm; average 7.0 mm). Mean tumor diameter was averaged from the longest diameter (length) multiplied by the perpendicular measurement (width). Tumor diameters were estimated when mean diameter was below 5 mm, and measured with electronic callipers when ≧5 mm.
Tumor volume was calculated using the formula:
where L=length and w=width in mm of the carcinoma.
(§1) Excess compound was discarded.
Tumor bearing mice were assigned randomly to treatment groups when tumor diameter reached treatment size. Animals were rejected if xenografts show evidence of: (i) attachment to underlying muscle (due to risk of local invasion), (ii) signs of ulceration, or (iii) indolent tumor growth. Drug administration begins on the day of assignment. In general, 0.7-0.8 of the inoculated population is assigned to the experiment. Drug administration was undertaken as outlined above.
During and after treatment, tumor size and body weights were measured regularly. Animals were culled if (i) the average diameter of the tumor exceeds 15 mm (survival end-point), (ii) body weight loss exceeds 15% of pre-treatment value, (iii) there is evidence of prolonged or excessive morbidity, or (iv) tumor ulceration occurred. Each experiment was terminated at day 120 after treatment initiation.
Kaplan-Meier plots were constructed and median survival was calculated (TTE50). The statistical significance of any differences in overall survival between treatment groups and control was analysed by Log Rank P statistical test. The log-rank test was calculated using XLStat Life (Kovach Computing Services Ltd). The statistic significance in overall survival between each treatment group and control was determined by testing the null hypothesis that the survival curves are identical in the two populations.
The time for individual tumors to increase in volume by 4 fold relative to treatment day-1 (relative tumor volume×4−RTV^4) was recorded. The median RTV^4 is calculated for each group and the difference in RTV^4 between control and treatment groups is described as the Tumor Growth Delay (TGD) in days. RTV^4 values notmalise for any bias in tumor treatment volume on day-1. The RTV^4 of each treatment group is tested for statistical difference from control group by unpaired t-test and Mann Whitney U test (means and medians, respectively).
In circumstances where long-term controls (LTCs) occur, an RTV^4 value equal to the total duration of the experiment is assigned for the purposes of statistical analysis (usually 120 days). Where one or more LTC is present the median RTV^4 of each treatment group is tested for statistical difference from control group by Mann Whitney U test only. The statistical analysis was conducted at a p level of 0.05 (two-tailed). SigmaStat v3.10 was used for the statistical analysis of RTV^4 values. SigmaPlot v9 was used for all graph plots.
Weight loss nadirs (time independent maxima) were recorded for each treatment group.

Series [2] deals with SiHa human cervical cancer xenograft. Put plainly: Growth delay and survival of SiHa xenograft, PR-104 and docetaxel. The series is classed as in vivo, Rag-1^null mice. From the text:
Analysis: End-points will be expressed as TTE50, Median RTV^4 and plotted in Kaplan-Meier Plots and analysed by Log Rank P statistical test. Weight loss nadir will be compared between schedules.

The test system of series [3] is A2780 human ovarian cancer xenografts. Put plainly: Growth delay and survival of A2780 xenografts, PR-104 and docetaxel. The series is classed as in vivo, CD-1 nude mice. Here is the method: (§2) End-point: After treatment, tumor size and body weights were measured regularly and mice were culled either when the average diameter of the tumor reached 15 mm (end-point), the tumor ulcerated or when the body weight change reached −15%. Experiment was ended and all remaining mice culled 120 days after treatment.
(§3) Analysis: End-points will be expressed as TTE50, Median RTV^4 and plotted in Kaplan-Meier Plots and analysed by Log Rank P statistical test.

Series [4] concerns 22RV1 androgen-resistant human prostate cancer xenograft. Put plainly: Growth delay and survival of 22RV1 xenograft, PR-104 and docetaxel. Format: in vivo, CD-1 nude mice. How it is done: as §2, §3
Series [5] concerns SiHa cervical cancer xenografts. Put plainly: Excision assay of SiHa xenografts (clonogenic log cell kill). The settings on record: SN 28343 91.2 mg/kg, SN 29303 375 mg/kg; for cell kill versus controls in excision assay (in words): SiHa human cervical tumor xenograft, docetaxel 65 mg/kg i.p.; for Log Cell Kill versus controls (Mean ± SEM): SiHa tumors excised 18 hours after treatment, docetaxel 65 mg/kg, i.p. Format: in vivo, CD-1 Fox^nu mice. How it is done:
As for Part 1 except for except where noted below.
as §1
Date, body weights (used to adjust injection volume), tumor diameter, unique identifier (tail markings), body weight, and volume to be injected were recorded. Animals were dosed with the test articles i.p. following a defined treatment schedule:
18 hours after treatment the mice were culled by cervical dislocation and tumors removed by dissection, in a sterile laminar flow hood. Whole tumor weights were recorded. Tumors were minced using scissors or scalpels until a fine minceate was obtained, and up to 500 mg of minceate was transferred into a pre-tiered Falcon®14 ml test tube containing a sterile magnetic spin bar and re-weighed.
Samples were then incubated in 37° C. water bath for 30 min over a magnetic stirrer.
After incubation any undissociated material was allowed to settle for 1 minute. […] Pellets were re-suspended in 10 ml of medium. Cells/ml was determined using an electronic particle counter (Beckman Coulter Electronics, Z2 model). Samples were then diluted to 1×10^5cells/ml and 6-fold serial dilutions made down to 4.6×10^2cells/ml.
1 ml of each sample was plated in triplicate for each dilution into appropriately labelled Falcon® P-60 tissue culture dishes containing 4 ml of αMEM+10% FCS+PS.
Where possible, all plates were counted; those colonies counted=larger than 50 cells, confirmed with the light microscope. TMTC was recorded for those plates where there were too many colonies to count.
The criteria for selecting the best dilution to use for calculating plating efficiency (PE):
Higher dilution count>100 colonies (average); lower dilution 10-100 colonies, use PE from the dilution with fewer colonies.
Higher dilution count >100; lower dilution count <20, use average data from both.
Higher dilution count <100; lower dilution count <20, use PE from the dilution with more colonies.
Higher dilution count <100; lower dilution count >20, use average data from both. Note: For the 10^5 dilution, take as the “lower limit” colony count a total count of 30, (sum of all replicates).
For orientation: A xenograft is tissue or cells of one species grown in another, often human tumour cells in immunodeficient mice.

Setting [6] is: H460 xenograft, PR-104 652 mg/kg, docetaxel 73 mg/kg, q2w×2.
Where [7] appears, read: Rag-1 mice, PR-104 652 mg/kg, docetaxel 73 mg/kg, q2w×2.
The mark [8] stands for this setting: A2780 xenograft, PR-104 652 mg/kg, docetaxel 73 mg/kg, q2w×2.
Setting [9] is: 22RV1 xenograft, PR-104 652 mg/kg, docetaxel 73 mg/kg, q2w×2.

Several values for one entry are separate records, joined by “and”; a condition that tells them apart may be missing. Equal entries are not always repeated.

In the case of `CS(=O)(=O)OCCN(CCBr)c1c(C(=O)NCCOP(=O)(O)O)cc([N+](=O)[O-])cc1[N+](=O)[O-]` [PR-104, 2-[(2-bromoethyl)-2,4-dinitro-6-[[[2-(phosphonooxy)ethyl]amino]-carbonyl]anilino]ethyl methane sulfonate], the “Weight Loss Nadir (%)” value in series [1] (H460 xenograft, CD-1 nude mice, mean body weight loss nadir, PR-104 652 mg/kg, docetaxel 73 mg/kg, i.p., q2w×2) is −4.9 ± 1.0%; in series [2] (Rag-1 mice, PR-104 652 mg/kg, docetaxel 73 mg/kg, i.p., q2w×2), −2.2±1.2%; in series [3] (A2780 xenograft, CD-1 nude mice, PR-104 652 mg/kg, docetaxel 73 mg/kg, i.p., q2w×2) it was −6.1±1.2%; in series [4] (22RV1 xenograft, CD-1 nude mice, PR-104 652 mg/kg, docetaxel 73 mg/kg, i.p., q2w×2), −2.1±0.5%. Moreover, the Unscheduled deaths was determined as 0 in series [1] (H460 xenograft, female CD-1 nude mice, total dose PR-104 652 mg/kg, docetaxel 73 mg/kg, i.p., q2w×2) and 1 in series [2] (female Rag-1 mice, total dose PR-104 652 mg/kg, docetaxel 73 mg/kg, i.p., q2w×2). Further, in series [1] (H460 xenograft, 120 day experiment, PR-104 652 mg/kg, docetaxel 73 mg/kg, q2w×2), the “LTC (long term control, failed to reach end-point within duration of experiment)” value came out at 0. Moreover, the “Median RTV^4 (median time for tumor volume to increase 4-fold)” value in series [1] (setting [6]) is 23 days. The “TGD (tumor growth delay; relative gain in median RTV^4 versus control)” value in series [1] (setting [6]) was determined as 187.5%. Further, the “TTE50 (median time for tumor end-point to occur from day of treatment)” value in series [1] (H460 xenograft, end-point >15 mm mean diameter, PR-104 652 mg/kg, docetaxel 73 mg/kg, q2w×2) turned out to be 29 days. Also, the “Gain TTE50 (improvement in median survival)” value amounted to 18 days in series [1] (H460 xenograft, versus control (11 days), PR-104 652 mg/kg, docetaxel 73 mg/kg, q2w×2); 8 days in series [2] (Rag-1 mice, versus control (17 days)); 4 days in series [3] (A2780 xenograft, versus control (6 days)); 17 days in series [4] (22RV1 xenograft, versus control (9.5 days)). Also, in series [1] (tumor growth delay and survival end-points), the “activity against H460 xenograft (in words)” value is listed as “significant single agent activity”. Also, the “activity against SiHa xenograft (in words)” value in series [2] (Rag-1 mice) was “modestly active”. Moreover, the “LTC (long term control)” value worked out at 0 in series [2] (Rag-1 mice, 120 day experiment); 0 in series [3] (A2780 xenograft, 120 day experiment); 0 in series [4] (22RV1 xenograft, 120 day experiment). For the same compound, the results for the “Median RTV^4” value in series [2] (setting [7]), in series [3] (setting [8]) and in series [4] (setting [9]) were 16 days, 8 days and 23 days, respectively. Moreover, the “TGD (relative gain in median RTV^4 versus control)” value in series [2] (setting [7]) is 33.3%; in series [3] (setting [8]), 78% and 77.8%. In series [2] (setting [7]), the “TTE50 (median time for tumor end-point to occur)” value was determined as 25 days. Also, in series [2] (Rag-1 mice, day of unscheduled death), the Day of death is reported as 14^B. The “improvement in tumor growth delay” value in series [2] (Rag-1 mice, versus control) is 4 days. Moreover, the values for the TTE50 in series [3] (setting [8]) and in series [4] (setting [9]) were 10 days and 26.5 days, respectively. Besides, the “improvement in median tumor growth delay” value in series [3] (A2780 xenograft, versus control) was determined as 3.5 days. Further, the “activity against A2780 xenograft (in words)” value in series [3] (based on tumor growth delay) is recorded as “no activity”. Moreover, the “activity against 22RV1 xenograft (in words)” value in series [4] (22RV1 prostate xenograft model) was “modest single-agent antitumor activity”. In addition, the “TGD (relative gain in median RTV^4 versus control; TGI in text)” value in series [4] (setting [9]) amounted to 156%. For the same compound, the “median tumor growth delay” value in series [4] (22RV1 xenograft, versus control) turned out to be 14 days.
With `O=C(NCCOP(=O)(O)O)c1cc([N+](=O)[O-])cc([N+](=O)[O-])c1N(CCBr)CCBr` [SN 28343, 2-[Bis(2-bromoethyl)amino]-N-(2-hydroxyethyl)-3,5-dinitrobenzamide phosphate ester], in series [5], the “cell kill versus controls in excision assay (in words)” value is “moderate and significant cell killing”; the “Log Cell Kill versus controls (Mean ± SEM)” value is 0.821.
In the case of `CS(=O)(=O)OCCN(CCBr)c1ccc([N+](=O)[O-])c(C(=O)NCCCOP(=O)(O)O)c1[N+](=O)[O-]` [SN 29303, 2-[2-bromoethyl)-2,4-dinitro-3-({[3-(phosphonooxy)propyl]amino}carbonyl) anilino]ethyl methanesulfonate], in series [5], the “cell kill versus controls in excision assay (in words)” value was “moderate and significant cell killing”; the “Log Cell Kill versus controls (Mean ± SEM)” value turned out to be 0.770.

The values above are taken from patent publication US20080064665A1, “Combination approaches to cancer treatment” (priority 2006, published 2008).
